Entries after “also recorded” stand apart in the source; their conditions may differ.

The first experiment concerns panel of up to 42 human chemokines. Nature of the experiment: Phage-display next generation sequencing screen of overlapping hexadecapeptide libraries, chemokines displayed on streptavidin beads. The format is binding. To be noted: log2E greater than 5, chemokines named by first part of UniProt Entry Name. The source says: FIG. 1. Exemplar results from phage display screens. Phage-display libraries were constructed and analysed as described in (McLaughlin, 2013) (Tonikian, 2007). […] FIG. 1A, CC chemokines against evasin A library. FIG. 1B, CXC chemokines against the evasin B library. FIG. 1C, CXC and CX3C chemokines against the viral chemokine binding protein library. FIG. 1D, CXC chemokines against the chemokine library. […] Identified hexadecapeptides were mapped to the position in the originating protein (x-axis) and to fold enrichment (log 2 E, left y-axis). Regions of interest (ROI) were defined where the cumulative residue log 2 E, (clog 2 E:r, right y-axis) exceeds the 95% upper confidence interval of the median clog 2 E:r for the entire protein (indicated as a horizontal dotted line in each panel). Proteins are referred to by their UniProt ID.
Hexadecapeptides were identified using a phage-display next generation sequencing approach (McLaughlin, 2013). Libraries containing a total of 55662 overlapping peptides (from the tick chemokine binding proteins shown in Tables 3A and 3B, the viral chemokine binding proteins shown in Table 3C, the human chemokines shown in Table 3 E, and the human/viral chemokine receptors and other chemokine-binding proteins shown in Table 3D) were first constructed, and then screened against a panel of up to 42 human chemokines, as shown in Table 3F.
For CR362 (AEIYEYLFFFSFFFLA), the “Chemokines Bound” value is reported as “CCL22, CXL11,; also recorded: CXL13”.
On the same count and under the same terms, for CR498 (AFLWGIFPTVIFSYFY) the value was “CCL17, CCL18,; also recorded: CCL19, CCL20,; also recorded: CCL25, CXL13”; for CR2290 (AWFLPIMYSIICFVGL), “CCL20, CCL22, and CCL25, CCL28, and X3CL1, CXL10, and CXL11, SDF1, and CXL13, CXL14, and IL8”.
Turning to CR2291 (AWFLPIMYSIISFVGL), the “Chemokines Bound” value is “CCL1, CCL11, and IL8”.
On to CR2301 (AWLPYYIGISIDSFIL), for which the “Chemokines Bound” value is reported as “CCL17, CCL19,; also recorded: CCL20”.
As to CR2340 (AYDLFIGIKIVYCFLW), the “Chemokines Bound” value is “CCL15, CCL17, and CCL18, CCL19, and CCL20, CCL22, and CCL25, CCL28, and X3CL1, CXL10, and CXL11, SDF1, and CXL13, CXL14, and IL8”.
As for CR2439 (CALVTLITSLFGSIFK), the “Chemokines Bound” value is “CCL17, CCL18, and CCL19, CCL20, and CXL10, SDF1, and CXL13, CXL14, and IL8”.
In the case of CR2524 (CFLWGIFPTVIFSYFY), the “Chemokines Bound” value is “CCL22, CCL25, and CXL13, CXL14, and IL8”.
On the same count and under the same terms, for CR2553 (CGIITSVLAWVTAILA) the value was “CCL11, CCL2, and CCL20, CCL22, and CCL28, CCL8, and X3CL1, CXL10, and SDF1, CXL14, and IL8”; for CR2586 (CILVWLLAFCVSLPDT), “CCL20, CCL28,; also recorded: CXL10, CXL11,; also recorded: CXL14”.
Same read-out and setting: for CR3107 (DFAAILLYIDDFSAYF) the value was “CCL18, X3CL1,; also recorded: CXL13”.
As to CR3135 (DFLCKLLNMIFSISLY), the “Chemokines Bound” value was “CCL17, CCL22,; also recorded: CCL25, CCL28,; also recorded: CXL11, IL8”.
Same read-out and setting: for CR3146 (DFLSKLLNMIFSISLY) the value was “CCL17, CCL18,; also recorded: CCL19, CCL2,; also recorded: CCL20, CXL14”; for CR3161 (DFSAILLYIDDFSAYF), “CCL17, CCL18,; also recorded: X3CL1, CXL10,; also recorded: SDF1, CXL13,; also recorded: CXL14”; for CR3302 (DLFIGIKIVYSFLWGI), “CCL1, CCL17,; also recorded: CCL18, CCL20,; also recorded: CCL22, CCL28,; also recorded: CXL10, CXL11,; also recorded: CXL13, IL8”.
For CR3373 (DLTNWKLLAEIYEYLF), the “Chemokines Bound” value is “CCL2, CCL22, and CCL28, CXL10, and CXL11, SDF1, and CXL13, CXL14, and IL8”.
As for CR3716 (DVYLLNLAISDLLFVF), the “Chemokines Bound” value is “CCL11, CCL2,; also recorded: CCL8, CXL11”.
Still for that read-out and setting: for CR3800 (DYSIILMFLSDFSFIF) the value was “CCL1, CCL11, and CCL15, CCL18, and CCL28, X3CL1, and CXL10, CXL11, and SDF1, CXL13, and IL8”; for CR4135 (EIYEYLFFFSFFFLAL), “CCL20, CCL25,; also recorded: CXL11, CXL13”.
Regarding CR4205 (ELFLAVKIVFSFIWGV), the “Chemokines Bound” value is reported as “CCL11, CCL17,; also recorded: CCL18, CCL19,; also recorded: CCL2, CCL20,; also recorded: CCL22, CCL25,; also recorded: CCL28, X3CL1,; also recorded: CXL10, CXL11,; also recorded: SDF1, CXL13,; also recorded: CXL14, IL8”.
On to CR4463 (ESLFAALVTLITSLFG), for which the “Chemokines Bound” value is reported as “CCL1, CCL17,; also recorded: CCL18, CCL2,; also recorded: X3CL1, CXL10,; also recorded: CXL11, IL8”.
In the case of CR4465 (ESLFSALVTLITSLFG), the “Chemokines Bound” value is listed as “CCL18, CCL8,; also recorded: CXL10”.
CR4712 (FAIVVAYFLSWGPYNF): the “Chemokines Bound” value is listed as “CCL18, CCL19,; also recorded: CCL20, CCL22,; also recorded: CCL25, SDF1”.
For the substance CR4753 (FAQLVYFIYHAVASYS), the “Chemokines Bound” value was “CCL2, CXL13, and IL8”.
Still for that read-out and setting: to CR4754 (FARAIDIIYSLITSAN) belongs “CCL18, CCL28,; also recorded: X3CL1”; to CR4756 (FASDFVLMWAVFFMTV), “CCL17, X3CL1,; also recorded: CXL10”.
In the case of CR4760 (FASFYLLDFILALVGN), the “Chemokines Bound” value is on record as “CCL22, CXL10,; also recorded: CXL11, SDF1,; also recorded: CXL13, IL8”.
On to CR4802 (FCALVTLITSLFGSIF), for which the “Chemokines Bound” value was “CCL11, CCL17,; also recorded: CCL18, CCL19,; also recorded: CCL20, CCL22,; also recorded: CCL25, CCL28,; also recorded: CCL8, X3CL1,; also recorded: CXL10, CXL11,; also recorded: SDF1, CXL13,; also recorded: CXL14, IL8”.
Take CR4845 (FDFMILNLSFCDLFIC): the “Chemokines Bound” value was “X3CL1, CXL13, and IL8”.
For CR5021 (FFSGMLLLLSISIDRY), the “Chemokines Bound” value is “CCL18, CCL19,; also recorded: CCL20, CCL28”.

The experiment is the same for the next values; noted with them: log2E greater than 5, chemokines named by first part of UniProt entry name, C5a (control) binders excluded.
As to CK576 (CADPSESWVQEYVYDL), the “Chemokines Bound” value is listed as “CCL17, CCL5,; also recorded: CXL10”.
Turning to CK1301 (FIADYFETSSQCSKPS), the “Chemokines Bound” value is “CCL20, CXL10,; also recorded: CXL14, IL8”.
Same read-out and setting: to CK1408 (FSRCCFSFAEQEIPLR) belongs “CCL1, CCL2,; also recorded: CCL8, CXL14”.
Regarding CK1445 (FVVDYYETSSLCSQPA), the “Chemokines Bound” value is “CCL19, CCL2, and X3CL1, SDF1, and IL8”.
Consider CK1982 (IFKTIVAKEICADPKQ), for which the “Chemokines Bound” value is recorded as “CCL1, CCL22,; also recorded: CCL5, X3CL1,; also recorded: CXL10, CXL13”.
CK2307 (IVRNFHYLLIKDGSRV): the “Chemokines Bound” value is on record as “CCL19, CCL20,; also recorded: CCL22”.
Consider CK3115 (LLESYFETNSECSKPG), for which the “Chemokines Bound” value is “CCL19, CCL22,; also recorded: X3CL1, CXL14”.
As to CK3274 (LRCVCLQTTQGVHPKM), the “Chemokines Bound” value is recorded as “X3CL1, CXL10,; also recorded: CXL11”.
The same measure, in the same setting: for CK3750 (PEWVNTPSTCCLKYYE) the value was “CCL18, CCL19,; also recorded: CCL22, X3CL1”.
Regarding CK4643 (RITNIQCPKEAVIFKT), the “Chemokines Bound” value was “CCL1, CCL19,; also recorded: CCL20”.
As for CK6066 (VCADPSESWVQEYVYD), the “Chemokines Bound” value was “CCL19, CCL28,; also recorded: X3CL1, IL8”.
Same read-out and setting: for CR1003 (ALAFIYVLMFLANAIG) the value was “CCL17, CCL18, and CCL19, CCL20, and CCL28, X3CL1, and CXL10, SDF1, and IL8”.
Consider CR1004 (ALAFIYVLMFLCNAIG), for which the “Chemokines Bound” value is reported as “CCL17, CCL18,; also recorded: CCL19, CCL20,; also recorded: CXL10, CXL14”.
For the substance CR1005 (ALAFIYVLMFLSNAIG), the “Chemokines Bound” value is given as “CCL19, CCL2,; also recorded: CCL20, CCL28,; also recorded: CXL14”.
Take CR1124 (ALIQMLEICIGFVVPF): the “Chemokines Bound” value is given as “CCL18, CCL19,; also recorded: CCL20”.
CR1325 (ALYSLLFLLGLLGNGA): the “Chemokines Bound” value is listed as “CCL17, CCL19,; also recorded: CCL2, CCL20,; also recorded: CCL22, CXL11,; also recorded: CXL14”.
The same measure, in the same setting: to CR1475 (ANVTFTGLIAAFSWFM) belongs “CCL2, CCL22,; also recorded: CXL11, CXL13”; to CR1802 (ASMILESLFAALVTLI), “CCL17, CCL18,; also recorded: CCL2, CCL20,; also recorded: CCL22, CCL25,; also recorded: CCL28, CXL10”.
In the case of CR1923 (ATFKILISIVWGVMPV), the “Chemokines Bound” value is given as “CCL18, CCL28,; also recorded: X3CL1, CXL10,; also recorded: CXL11, SDF1,; also recorded: CXL13, IL8”.
In the case of CR2028 (ATSWVVIFWILAALMG), the “Chemokines Bound” value is reported as “CCL17, CCL18,; also recorded: CCL19, CCL20,; also recorded: CCL28, SDF1,; also recorded: CXL13, CXL14”.
As to CR2051 (ATYMLLVLYYAMLPLM), the “Chemokines Bound” value was “CCL20, CCL22,; also recorded: CCL28, X3CL1,; also recorded: CXL10, SDF1,; also recorded: CXL14, IL8”.
For the substance CR2129 (AVFYALLFVFSLLGNS), the “Chemokines Bound” value was “CCL15, CCL18, and CCL19, CCL20, and CCL25, CCL28, and SDF1”.
On the same count and under the same terms, to CR2158 (AVKIVFSFIWGVLPTM) belongs “CCL18, CCL20,; also recorded: SDF1, CXL14”; to CR2278 (AVWGLSLLFALPDFIF), “CCL18, CCL2,; also recorded: CCL22, CCL28,; also recorded: CXL10, CXL11,; also recorded: SDF1, CXL13,; also recorded: CXL14, IL8”; to CR2290 (AWFLPIMYSIICFVGL), “CCL1, CCL17,; also recorded: CCL18, CCL19,”.

For the origin of these results see patent publication US20260234188A1, “CHEMOKINE-BINDING PEPTIDES” (Oxford University Innovation Limited, priority 2022, published 2026).
